# Legend:
# [1] = Stability of the analytes in beagle plasma QC samples under different storage conditions; type: physicochemical, beagle dog; conditions: n = 6; for Stability (% RE) Long-Term: 2 weeks at −80 °C; for Stability (% RE) Short-Term: 4 h at ambient temperature; for Stability (% RE) Freeze-Thaw: three freeze (−80 °C)-thaw cycles; for Stability (% RE) Post-Preparative: 12 h after sample preparation at 4 °C
# Protocol: As illustrated in Table 4. The stability of QC samples at three evaluated concentrations contained low, medium and high under different stored conditions was assessed on the basis of peak areas in comparison with freshly prepared QC sample.
# (§1) The stability of the fourteen analytes in beagle dogs investigated by analyzing QC samples of each analyte at three QC levels (LQC, MQC and HQC) and each level contained six replicates. The short-term stability was assessed during storage for 4 h at ambient temperature. The long-term stability was determined after the QC samples had been stored for 2 weeks at −80 °C. The freeze-thaw stability was determined after three freeze at −80 °C and thaw cycles. and post-preparative stability was during storage for 12 h after sample preparation at 4 °C. The room temperature stability for stock solution was determined after storing the sample at 25 °C for 24 h. A series of concentrations of stability testing QC samples was gained by the calibration curve which was established from freshly prepared standard samples.
# [2] = Room temperature stability of stock solution; type: physicochemical; conditions: 25 °C for 24 h, n = 6
# Protocol: as §1
# [3] = Pharmacokinetic study in beagle dogs after oral administration of C. bungeana extract (UHPLC-MS/MS of plasma); conditions: for AUC(0-inf) / AUC(0-t) / Cmax / Tmax / half-life: male, beagle, dog, plasma, po, 0.12 g/kg; for Shape of plasma concentration-time profile / Time of first peak of plasma concentration-time profile / Time of second peak of plasma concentration-time profile: beagle dog plasma; for Shape of plasma concentration-time profile: oral C. bungeana extract 0.12 g/kg; for Time of first peak of plasma concentration-time profile / Time of second peak of plasma concentration-time profile: oral C. bungeana extract, post-dose
# Protocol: The developed UHPLC-MS/MS method was employed to determine the pharmacokinetics of the fourteen components in C. bungeana after a single oral administration of 0.12 g/kg (equivalent to 1180.8 µg/kg A, 100.8 µg/kg B, 172.8 µg/kg C, 194.4 µg/kg D, 147.6 µg/kg E, 291.6 µg/kg F, 7.2 µg/kg G, 64.8 µg/kg H, 10.8 µg/kg I, 435.6 µg/kg J, 7.2 µg/kg K, 2851.2 µg/kg L, 694.8 µg/kg M, 928.8µg/kg N) to six beagle dogs. […] According to the Meeh-Rubn method, we established a final oral dosage of 0.12 g/kg in dogs. The plasma concentrations of the fourteen components at each time point were detected and the data gained from six beagle dogs were averaged.
# Before the experiment, the beagle dogs were fasted for 12 h but given water during the research period. Blood (300 µL) was collected from the forelimb vein plexus at a few specific time points (0.083, 0.25, 0.5, 0.75 and 1, 2, 3, 4, 6, 8, 12, 24 h) after the oral administration of the extract of C. bungeana (0.12 g/kg). After centrifugation at 13,000 rpm for 10 min, the plasma was collected immediately and maintained at −80 °C until sample analysis.
# Using a liquid-liquid extraction method, 100 µL of methanol and 50 µL of IS (bifendate) were added to a beagle dog plasma sample (100 µL) followed by vortex for 30 s. Then 3 mL of aether was accurately added and the mixture was vortexed for 60 s. After this step, the samples were put into a centrifuge (XiangYi Technologies, Changsha, Hunan, China). The organic supernatant was pipetted into clean glass tubes individually after centrifugation 3800 rpm for 6 min. The upper organic layer was removed and evaporated to dryness at 40 °C under a stream of nitrogen. The residue was then redissolved with 100 µL of mobile phase (28% acetonitrile), vortexed for 30 s and filtered by a 0.22 µm membrane. A 10 µL aliquot of the solution was injected into the UHPLC-MS/MS system for analysis.
# Concentrations of fourteen alkaloids in beagle dog blood were calculated employing the Excel program (Microsoft Corp., Redmond, WA, USA). Pharmacokinetic parameters were calculated using non-compartmental methods. The elimination rate constant (Ke) was calculated employing the linear regression of the terminal points in a semi-log plot of the plasma concentration against time. The elimination half-life (t1/2) was calculated using the formula. t1/2 = 0.693/Ke(1)
# The area under the blood concentration versus time curve up to the last quantifiable time point (AUC0→t) was calculated by the linear trapezoidal rule. The area under the plasma concentration –time curve to time infinity (AUC0→∞) was calculated as follows: AUC0→∞ = AUC0→t + Ct/Ke(2)
# The maximum observed blood concentration (Cmax) and the time to reach maximum observed blood concentration (Tmax) were obtained directly from the concentration-time curve.
Structure (SMILES),Stability (% RE) Long-Term ([1]; high QC in beagle plasma),Stability (% RE) Short-Term ([1]; high QC in beagle plasma),Stability (% RE) Freeze-Thaw ([1]; high QC in beagle plasma),Stability (% RE) Post-Preparative ([1]; high QC),Stability (% RE) Long-Term ([1]; low QC in beagle plasma),Stability (% RE) Short-Term ([1]; low QC in beagle plasma),Stability (% RE) Freeze-Thaw ([1]; low QC in beagle plasma),Stability (% RE) Post-Preparative ([1]; low QC),Stability (% RE) Long-Term ([1]; medium QC in beagle plasma),Stability (% RE) Short-Term ([1]; medium QC in beagle plasma),Stability (% RE) Freeze-Thaw ([1]; medium QC in beagle plasma),Stability (% RE) Post-Preparative ([1]; medium QC),Stability (% RE) Room Temperature for Stock-Solution ([2]; high QC level),Stability (% RE) Room Temperature for Stock-Solution ([2]; low QC level),Stability (% RE) Room Temperature for Stock-Solution ([2]; medium QC level),AUC(0-inf) [3],AUC(0-t) [3],Cmax [3],Tmax [3],half-life [3],further results
CN1C(=O)c2c(ccc3c2OCO3)C2(C)C(O)Cc3cc4c(cc3C12)OCO4 (centres unmarked) [8-oxocorynoline],3.13 % RE,−2.89 % RE,−3.58 % RE,10.60 % RE,3.08 % RE,1.62 % RE,1.18 % RE,3.71 % RE,5.35 % RE,−3.92 % RE,9.69 % RE,10.01 % RE,2.30 % RE,−4.08 % RE,3.77 % RE,284 ± 62.4 ng·h/mL,260 ± 64.2 ng·h/mL,94.5 ± 22.8 ng/mL,0.92 ± 0.13 h,6.98 ± 1.76 h,–
"CC(=O)O[C@H]1Cc2cc3c(cc2[C@H]2N(C)Cc4c(ccc5c4OCO5)[C@@]12C)OCO3 [Acetylcorynoline, acetylcorynoline]",7.32 % RE,−4.81 % RE,−4.20 % RE,2.05 % RE,8.62 % RE,6.47 % RE,5.17 % RE,12.65 % RE,7.56 % RE,6.74 % RE,−3.75 % RE,−3.44 % RE,3.69 % RE,−1.83 % RE,2.57 % RE,244 ± 26.2 ng·h/mL,230 ± 18.6 ng·h/mL,107 ± 4.63 ng/mL,0.58 ± 0.13 h,5.52 ± 0.93 h,–
"COc1ccc2cc3[n+](cc2c1OC)CCc1cc2c(cc1-3)OCO2 [Berberine, berberine]",7.00 % RE,11.96 % RE,7.71 % RE,10.36 % RE,7.75 % RE,9.61 % RE,12.57 % RE,11.84 % RE,7.72 % RE,7.42 % RE,11.60 % RE,9.39 % RE,−3.26 % RE,2.22 % RE,4.08 % RE,3770 ± 139 ng·h/mL,3690 ± 141 ng·h/mL,1370 ± 313 ng/mL,0.92 ± 0.13 h,2.49 ± 0.14 h,Shape of plasma concentration-time profile [3]: conspicuous bimodal phenomenon; Time of first peak of plasma concentration-time profile [3]: 0.5 to 1 h; Time of second peak of plasma concentration-time profile [3]: 4 to 8 h
"COc1ccc2cc3[n+](cc2c1O)CCc1cc2c(cc1-3)OCO2 [Berberrubine, berberrubine]",11.01 % RE,10.78 % RE,10.06 % RE,5.08 % RE,11.85 % RE,11.76 % RE,12.88 % RE,5.99 % RE,3.75 % RE,5.82 % RE,5.15 % RE,7.97 % RE,3.65 % RE,−2.05 % RE,1.25 % RE,1200 ± 86.3 ng·h/mL,1160 ± 94.2 ng·h/mL,450 ± 61.6 ng/mL,0.96 ± 0.1 h,4.88 ± 1.72 h,–
"COc1cc2c(cc1O)-c1cc3ccc(OC)c(OC)c3c[n+]1CC2 [Columbamine, columbamine]",10.24 % RE,9.67 % RE,5.60 % RE,12.44 % RE,9.66 % RE,8.47 % RE,11.50 % RE,8.80 % RE,11.77 % RE,4.02 % RE,12.73 % RE,5.50 % RE,2.50 % RE,4.02 % RE,1.62 % RE,7030 ± 290 ng·h/mL,6830 ± 170 ng·h/mL,2130 ± 196 ng/mL,0.92 ± 0.13 h,2.87 ± 0.42 h,Shape of plasma concentration-time profile [3]: conspicuous bimodal phenomenon; Time of first peak of plasma concentration-time profile [3]: 0.5 to 1 h; Time of second peak of plasma concentration-time profile [3]: 4 to 8 h
"CN1Cc2c(ccc3c2OCO3)[C@@]2(C)[C@@H](O)Cc3cc4c(cc3[C@@H]12)OCO4 [Corynoline, corynoline]",9.74 % RE,6.81 % RE,7.95 % RE,5.40 % RE,13.95 % RE,−2.63 % RE,6.11 % RE,7.14 % RE,6.81 % RE,9.25 % RE,6.78 % RE,−2.98 % RE,–,–,–,755 ± 58.9 ng·h/mL,734 ± 57.5 ng·h/mL,224 ± 15.3 ng/mL,0.96 ± 0.1 h,4.25 ± 0.81 h,Shape of plasma concentration-time profile [3]: conspicuous bimodal phenomenon; Time of first peak of plasma concentration-time profile [3]: 0.5 to 1 h; Time of second peak of plasma concentration-time profile [3]: 4 to 8 h
"COc1cc2c(cc1OC)-c1cc3ccc(OC)c(OC)c3c[n+]1CC2 [Palmatine, palmatine]",11.04 % RE,6.73 % RE,8.37 % RE,−7.08 % RE,7.79 % RE,9.42 % RE,10.26 % RE,6.92 % RE,10.77 % RE,−6.30 % RE,8.08 % RE,9.22 % RE,–,–,–,9580 ± 596 ng·h/mL,8040 ± 459 ng·h/mL,1900 ± 84.9 ng/mL,0.96 ± 0.1 h,8.56 ± 1.29 h,Shape of plasma concentration-time profile [3]: conspicuous bimodal phenomenon; Time of first peak of plasma concentration-time profile [3]: 0.5 to 1 h; Time of second peak of plasma concentration-time profile [3]: 4 to 8 h

# From paper PMC6222357, “Liquid Chromatography-Tandem Mass Spectrometry Simultaneous Determination and Pharmacokinetic Study of Fourteen Alkaloid Components in Dog Plasma after Oral Administration of Corydalis bungeana Turcz Extract” (Molecules : A Journal of Synthetic Chemistry and Natural …, 2018)
